Consider 12 compounds from ChEMBL document CHEMBL3044582, “Nontraditional approaches to the synthesis of some biologically active substituted p-benzoquinones” (2008).

Molecules are shown by their SMILES. Activity calls are given as the source filed them. The rule behind the calls is not given here.

What all share (assay type): functional
The test system of test [1] is Rhizopus arrhizus. The test is described as follows: Antifungal activity against Rhizopus oryzae at 50 ug/ml after 48 hr by paper disk diffusion method. The settings on record: for zone of inhibition at 50 µg/mL: read-out: IZ. For orientation: Agar diffusion results depend on both activity and mobility in agar.
Test [2] has as its system Aspergillus flavus. The test is described as follows: Antifungal activity against Aspergillus flavus at 50 ug/ml after 48 hr by paper disk diffusion method. The settings on record: read-out: IZ.
Test [3] has as its system Rhizopus arrhizus. The test is described as follows: Antifungal activity against Rhizopus oryzae at 100 ug/ml after 48 hr by paper disk diffusion method. The settings on record: for zone of inhibition at 100 µg/mL: read-out: IZ.
For test [4], the system named is Aspergillus flavus. The test is described as follows: Antifungal activity against Aspergillus flavus at 100 ug/ml after 48 hr by paper disk diffusion method. The settings on record: read-out: IZ.
The test system of test [5] is Aspergillus niger. The test is described as follows: Antifungal activity against Aspergillus niger at 100 ug/ml after 48 hr by paper disk diffusion method. The settings on record: read-out: IZ.
For test [6], the system named is Aspergillus niger. The test is described as follows: Antifungal activity against Aspergillus niger at 50 ug/ml after 48 hr by paper disk diffusion method. The settings on record: read-out: IZ.
For test [7], the system named is Pseudomonas syringae. The test is described as follows: Antibacterial activity against Pseudomonas syringae at 50 ug/ml after 24 hr by agar cup-plate method. The settings on record: read-out: DIZ.
Test [8] concerns Klebsiella aerogenes. The test is described as follows: Antibacterial activity against Enterobacter aerogenesat 50 ug/ml after 24 hr by agar cup-plate method.
The test system of test [9] is Paracoccus denitrificans. The test is described as follows: Antibacterial activity against Paracoccus denitrificans at 50 ug/ml after 24 hr by agar cup-plate method. The settings on record: read-out: DIZ.
Test [10] has as its system Bacillus subtilis. The test is described as follows: Antibacterial activity against Bacillus subtilis at 50 ug/ml after 24 hr by agar cup-plate method. The settings on record: read-out: DIZ.
Test [11] concerns Bacillus subtilis. Briefly: Antibacterial activity against Bacillus subtilis at 4 ug/ml after 24 hr by agar cup-plate method. The settings on record: read-out: DIZ.
Test [12] deals with Pseudomonas syringae. Briefly: Antibacterial activity against Pseudomonas syringae at 4 ug/ml after 24 hr by agar cup-plate method. As to conditions: read-out: DIZ.
Test [13] deals with Paracoccus denitrificans. The test is described as follows: Antibacterial activity against Paracoccus denitrificans at 4 ug/ml after 24 hr by agar cup-plate method. The settings on record: read-out: DIZ.
Test [14] concerns Klebsiella aerogenes. Briefly: Antibacterial activity against Enterobacter aerogenes at 4 ug/ml after 24 hr by agar cup-plate method. As to conditions: read-out: DIZ.

`COC1=CC(=O)C[C@@H](C)[C@]12Oc1c(Cl)c(OC)cc(OC)c1C2=O` [GRISEOFULVIN]: the zone of inhibition at 50 µg/mL with Rhizopus arrhizus [1], in the test on Aspergillus flavus [2] and with Aspergillus niger [6] was more than 21 mm throughout. Further, the zone of inhibition at 100 µg/mL with Rhizopus arrhizus [3], with Aspergillus flavus [4] and in the test with Aspergillus niger [5] was more than 21 mm in each case.

On to `COc1ccccc1NC1=C(Cl)C(=O)C(Nc2ccccc2OC)=C(Cl)C1=O`, for which the zone of inhibition at 50 µg/mL in the test with Pseudomonas syringae [7] was found to be 3 mm; with Rhizopus arrhizus [1], 3 mm; with Aspergillus flavus [2] it was 3 mm; in the test with Paracoccus denitrificans [9], 13 mm; in the test with Bacillus subtilis [10] it was 3 mm; with Aspergillus niger [6] it was 10 mm. Also, the results for the zone of inhibition at 100 µg/mL in the test on Rhizopus arrhizus [3], in the test with Aspergillus flavus [4] and with Aspergillus niger [5] were 10 mm, 10 mm and 13 mm, respectively. Also, in the test on Klebsiella aerogenes [8], the “diameter of the inhibition zone (DIZ)” value is 10 mm.

As for `O=C1C(Cl)=C(Nc2ccccc2Cl)C(=O)C(Cl)=C1Nc1ccccc1Cl`, the zone of inhibition at 50 µg/mL with Pseudomonas syringae [7] turned out to be 10 mm; in the test on Rhizopus arrhizus [1], 10 mm; with Aspergillus flavus [2], 10 mm; with Paracoccus denitrificans [9] it was 13 mm; in the test with Bacillus subtilis [10], 13 mm; in the test with Aspergillus niger [6], 10 mm. Further, the zone of inhibition at 100 µg/mL in the test with Rhizopus arrhizus [3], with Aspergillus flavus [4] and with Aspergillus niger [5] was 13 mm throughout. The “diameter of the inhibition zone (DIZ)” value with Klebsiella aerogenes [8] is recorded as 10 mm.

For `COc1ccc(NC2=C(Cl)C(=O)C(Nc3ccc(OC)cc3)=C(Cl)C2=O)cc1`, the zone of inhibition at 50 µg/mL with Pseudomonas syringae [7] amounted to 10 mm; with Aspergillus flavus [2], 10 mm; with Paracoccus denitrificans [9], 13 mm; with Bacillus subtilis [10] it was 10 mm; with Aspergillus niger [6], 3 mm. For the same compound, the “inhibition zone (IZ)” value in the test on Rhizopus arrhizus [1] was “inactive”. Besides, the values for the zone of inhibition at 100 µg/mL in the test on Rhizopus arrhizus [3], in the test on Aspergillus flavus [4] and in the test on Aspergillus niger [5] were 3 mm, 13 mm and 10 mm, respectively. Besides, the “diameter of the inhibition zone (DIZ)” value in the test on Klebsiella aerogenes [8] is 3 mm.

Take `Cc1ccccc1NC1=C(Cl)C(=O)C(Nc2ccccc2C)=C(Cl)C1=O`: the zone of inhibition at 50 µg/mL with Pseudomonas syringae [7], in the test with Aspergillus flavus [2], in the test with Paracoccus denitrificans [9], with Bacillus subtilis [10] and with Aspergillus niger [6] was 3 mm in each case. Also, the “inhibition zone (IZ)” value with Rhizopus arrhizus [1] and in the test on Rhizopus arrhizus [3] was “inactive” throughout. In addition, the “diameter of the inhibition zone (DIZ)” value in the test with Klebsiella aerogenes [8] amounted to 3 mm. Moreover, the zone of inhibition at 100 µg/mL in the test on Aspergillus flavus [4] and in the test on Aspergillus niger [5] was 3 mm in each case.

Consider `O=C1C(Cl)=C(Nc2ccc(Br)cc2)C(=O)C(Cl)=C1Nc1ccc(Br)cc1`, for which the zone of inhibition at 50 µg/mL in the test with Pseudomonas syringae [7] turned out to be 10 mm; with Rhizopus arrhizus [1], 3 mm; with Aspergillus flavus [2], 10 mm; in the test on Paracoccus denitrificans [9], 13 mm; in the test with Bacillus subtilis [10], 13 mm; with Aspergillus niger [6] it was 10 mm. In addition, the values for the zone of inhibition at 100 µg/mL in the test on Rhizopus arrhizus [3], with Aspergillus flavus [4] and in the test with Aspergillus niger [5] were 13 mm, 13 mm and more than 21 mm, respectively. Further, in the test with Klebsiella aerogenes [8], the “diameter of the inhibition zone (DIZ)” value is 10 mm.

Regarding `O=C1C(Cl)=C(Nc2ccccc2F)C(=O)C(Cl)=C1Nc1ccccc1F`, the zone of inhibition at 50 µg/mL in the test with Pseudomonas syringae [7] is 13 mm; with Rhizopus arrhizus [1] it was 10 mm; with Aspergillus flavus [2], 10 mm; in the test on Paracoccus denitrificans [9], more than 21 mm; with Bacillus subtilis [10], more than 21 mm; in the test with Aspergillus niger [6] it was 13 mm. In addition, the zone of inhibition at 100 µg/mL was 13 mm in the test on Rhizopus arrhizus [3], 13 mm with Aspergillus flavus [4] and more than 21 mm in the test with Aspergillus niger [5]. The “diameter of the inhibition zone (DIZ)” value with Klebsiella aerogenes [8] is 13 mm.

For the compound `Cc1ccc(NC2=C(Cl)C(=O)C(Nc3ccc(C)cc3)=C(Cl)C2=O)cc1`, the zone of inhibition at 50 µg/mL with Pseudomonas syringae [7] is 3 mm; in the test on Aspergillus flavus [2], 3 mm; in the test with Paracoccus denitrificans [9], 10 mm; with Bacillus subtilis [10], 3 mm; in the test on Aspergillus niger [6], 3 mm. Besides, the “inhibition zone (IZ)” value in the test on Rhizopus arrhizus [1] and in the test on Rhizopus arrhizus [3] was “inactive” in each case. The “diameter of the inhibition zone (DIZ)” value with Klebsiella aerogenes [8] was “inactive”. For the same compound, the zone of inhibition at 100 µg/mL with Aspergillus flavus [4] and in the test with Aspergillus niger [5] was 10 mm throughout.

Consider `O=C1C(Cl)=C(Nc2ccc(Cl)cc2)C(=O)C(Cl)=C1Nc1ccc(Cl)cc1`, for which the zone of inhibition at 50 µg/mL amounted to 10 mm with Pseudomonas syringae [7]; 3 mm in the test on Rhizopus arrhizus [1]; 10 mm in the test with Aspergillus flavus [2]; 10 mm with Paracoccus denitrificans [9]; 10 mm with Bacillus subtilis [10]; 10 mm in the test on Aspergillus niger [6]. Further, the zone of inhibition at 100 µg/mL in the test on Rhizopus arrhizus [3] is 10 mm; in the test on Aspergillus flavus [4], 13 mm; with Aspergillus niger [5], 10 mm. Also, the “diameter of the inhibition zone (DIZ)” value in the test with Klebsiella aerogenes [8] turned out to be 13 mm.

Regarding `O=C1C(Cl)=C(Nc2ccc(F)cc2)C(=O)C(Cl)=C1Nc1ccc(F)cc1`, the zone of inhibition at 50 µg/mL is 13 mm in the test on Pseudomonas syringae [7]; 10 mm with Rhizopus arrhizus [1]; 13 mm in the test on Aspergillus flavus [2]; 13 mm with Paracoccus denitrificans [9]; more than 21 mm in the test on Bacillus subtilis [10]; 13 mm in the test with Aspergillus niger [6]. In addition, the zone of inhibition at 100 µg/mL in the test on Rhizopus arrhizus [3] is 13 mm; in the test with Aspergillus flavus [4] it was 13 mm; in the test with Aspergillus niger [5] it was more than 21 mm. For the same compound, the “diameter of the inhibition zone (DIZ)” value in the test on Klebsiella aerogenes [8] came out at 10 mm.

As to `O=C1C(Cl)=C(Nc2ccccc2)C(=O)C(Cl)=C1Nc1ccccc1`, the zone of inhibition at 50 µg/mL in the test with Pseudomonas syringae [7] was found to be 10 mm; in the test with Aspergillus flavus [2], 3 mm; in the test with Paracoccus denitrificans [9] it was 10 mm; in the test on Bacillus subtilis [10] it was 3 mm; in the test with Aspergillus niger [6] it was 3 mm. In the test with Rhizopus arrhizus [1], the “inhibition zone (IZ)” value is “inactive”. Also, the figures for the zone of inhibition at 100 µg/mL in the test with Rhizopus arrhizus [3], in the test on Aspergillus flavus [4] and with Aspergillus niger [5] were 3 mm, 3 mm and 10 mm, respectively. The “diameter of the inhibition zone (DIZ)” value in the test on Klebsiella aerogenes [8] was “inactive”.

On to `CCn1cc(C(=O)O)c(=O)c2cc(F)c(N3CCNCC3)cc21` [NORFLOXACIN], for which the zone of inhibition at 4 µg/mL with Bacillus subtilis [11] was more than 21 mm; in the test on Pseudomonas syringae [12], more than 21 mm; with Paracoccus denitrificans [13], 13 mm; in the test with Klebsiella aerogenes [14], more than 21 mm.
